According to patent US9611276B2, “Imidazo bicyclic iminium compounds as antitumor agents” (THE BOARD OF TRUSTEES OF THE LELAND STANFORD JUNIOR …, priority 2012, dated 2017):
Read-outs that look alike come from different tables or passages of the source.

Legend:
[1] = tested on: Gli3; assay: Hh ligand-dependent Gli3 processing in Shh-EGFP cells; format: cell-based
Protocol: Each compound or vehicle treatment was conducted in the presence or absence of 10% (v/v) Shh-N-conditioned medium. The cells were then lysed by incubation with SDS-PAGE loading buffer composed of 50 mM Tris-HCl, pH 6.8, 2% (w/v) SDS, 8% (v/v) glycerol, 100 mM DTT, 0.1 mg/mL bromophenol blue, EDTA-free protease inhibitor cocktail (Roche) and Phosstop (Roche) for 5 min in a cold room. […] The membranes were dehydrated with methanol and probed overnight at 4° C. with goat polyclonal anti-Gli3 antibody (1 μg/mL; R & D Systems, AF3690) in PBS containing 4% (w/v) non-fat dry milk and 0.01% (v/v) Tween-20 (immunoblot blocking buffer). […] Band intensities of Gli3FL and Gli3R were quantified using ImageJ64 software (NIH), and three independent experiments were used to determine the average Gli3FL/Gli3R ratio for each compound.

[2] = tested on: Hh pathway activity; assay: Sufu-KO-LIGHT cell assay, Gli-dependent firefly luciferase reporter; format: cell-based, mouse; details: for IC50: Mus musculus
Protocol: Sufu-KO-LIGHT cells were derived from Sufu knockout mouse embryonic fibroblasts according to the method of Chen et al. [Genes Dev. 2009; 23(16):1910-28.] The cells were co-transfected with the zeocin resistance vector (pVgRXR, Invitrogen) and a firefly luciferase reporter driven by eight Gli binding sites and a γ-crystallin basal promoter (8XGliBS-FL) [see Sasaki et al. Development. 1997; 124(7):1313-22.2]. […] Sufu-KO-LIGHT cells were cultured in DMEM (Invitrogen, 11965) containing 10% (v/v) fetal bovine serum (Invitrogen, No. 26140), 150 μg/mL zeocin (Invitrogen, R250-01), 1 mM sodium pyruvate (Invitrogen, 11360) and 1× PenStrep (Gibco, 15140).
(§1) All test compounds were dissolved in DMSO at 50 mM, serially diluted by 1:3, 1:4 or 1:5 in a 96-well translucent microplate (Greiner bio-one, 650201) and stored at −20° C. These serial dilutions were added to assay media freshly with final DMSO concentration of 0.2% (v/v).
The Sufu-KO-LIGHT cell assay provides a measure of Hh pathway activity and cytotoxicity. Sufu-KO-LIGHT cells were seeded into a 96-well plate (35,000 cells/well), cultured to confluency for 24 hrs and then incubated with test compounds in DMEM without phenol red (Invitrogen, 26140) containing 0.5% (v/v) fetal bovine serum (Invitrogen, No. 26140), 150 μg/mL zeocin (Invitrogen, R250-01), 1 mM sodium pyruvate (Invitrogen, 11360), 1× PenStrep (Gibco, 15140) for 16 hrs. Bright Glo (Promega, E2620) reagent (50 μL/well) was added to the cells, and luciferase activities were determined on a microplate luminometer (Veritas). To assess cytotoxicity, after 15 hrs of incubation with test compounds, CellTiter 96 AQueous One Solution Cell Proliferation Assay (Promega, G3580) reagent (20 μL/well) was added. Cell viability was determined by measuring absorption at 490 nm after 1 hr of incubation on a microplate spectrophotometer (Benchmark Plus, Bio-Rad). Biological triplicates were analyzed for each test compounds.

[3] = molecular target: T1, Gli1 (Homo sapiens, UniProt P08151); assay: Overexpression of Gli1 in NIH-3T3 cells, firefly luciferase reporter; format: cell-based
T1 construct: expressed in transfected cells; host or cells: NIH-3T3 (mouse fibroblasts)
T1 sequence (P08151 1-1106): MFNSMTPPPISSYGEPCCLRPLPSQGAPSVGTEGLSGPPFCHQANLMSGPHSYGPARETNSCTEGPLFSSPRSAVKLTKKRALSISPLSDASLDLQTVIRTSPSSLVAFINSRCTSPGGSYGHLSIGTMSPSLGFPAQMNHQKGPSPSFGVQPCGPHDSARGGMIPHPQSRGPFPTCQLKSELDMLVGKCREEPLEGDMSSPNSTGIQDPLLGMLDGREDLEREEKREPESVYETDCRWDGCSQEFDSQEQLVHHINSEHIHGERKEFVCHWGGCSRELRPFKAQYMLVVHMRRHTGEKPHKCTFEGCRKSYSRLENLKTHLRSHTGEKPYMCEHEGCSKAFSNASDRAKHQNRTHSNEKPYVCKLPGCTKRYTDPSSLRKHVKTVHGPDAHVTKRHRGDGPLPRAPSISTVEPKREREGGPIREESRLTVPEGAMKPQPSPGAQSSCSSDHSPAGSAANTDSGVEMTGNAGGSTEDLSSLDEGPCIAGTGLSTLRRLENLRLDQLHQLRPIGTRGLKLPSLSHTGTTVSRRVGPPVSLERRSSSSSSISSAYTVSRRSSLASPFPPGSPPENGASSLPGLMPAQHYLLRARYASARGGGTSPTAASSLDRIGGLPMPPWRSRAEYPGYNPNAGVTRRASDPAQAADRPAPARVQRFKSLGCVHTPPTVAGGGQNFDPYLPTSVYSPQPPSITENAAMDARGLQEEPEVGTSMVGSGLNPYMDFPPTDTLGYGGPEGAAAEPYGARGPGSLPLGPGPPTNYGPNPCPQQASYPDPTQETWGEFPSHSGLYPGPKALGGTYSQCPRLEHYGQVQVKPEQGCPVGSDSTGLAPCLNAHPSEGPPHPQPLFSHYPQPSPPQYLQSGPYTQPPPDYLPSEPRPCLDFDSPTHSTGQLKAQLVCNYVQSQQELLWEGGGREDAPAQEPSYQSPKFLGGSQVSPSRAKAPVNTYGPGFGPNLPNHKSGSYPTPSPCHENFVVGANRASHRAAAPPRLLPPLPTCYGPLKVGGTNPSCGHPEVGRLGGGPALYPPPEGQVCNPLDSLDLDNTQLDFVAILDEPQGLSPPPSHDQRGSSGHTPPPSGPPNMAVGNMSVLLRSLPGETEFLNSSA
Protocol: NIH-3T3 cells were obtained from ATCC and cultured in DMEM (Invitrogen, 11965) containing 10% (v/v) calf serum (ATCC, 30-2030), 1 mM sodium pyruvate (Invitrogen, 11360) and 1× PenStrep (Gibco, 15140).
as §1
Overexpression of Gli1 or Gli2 in NIH-3T3 cells provides a measure of Gli1- or Gli1/Gli2-induced pathway activity, respectively. NIH 3T3 cells were seeded into a 24-well plate (35,000 cells/well) and cultured for 30 hrs. […] The cells were lysed with passive lysis buffer (200 μL/well), and 10 μL of the obtained lysate were analyzed for firefly and Renilla luciferase activities using Dual-Luciferase Reporter Assay System (Promega, E1960) (50 μL/well of each reagent) on a microplate luminometer (Veritas). Biological triplicates were analyzed for each test compounds.

CCOc1ccc(-[n+]2cc(-c3ccc(Br)cc3)n3c2CCCCC3)cc1 [Compound A-1]
Effect on Gli3FL phosphorylation [1]: Nor did the compound prevent Gli3FL phosphorylation | Effect on Gli3 processing, Gli3FL/Gli3R ratio ([1]; ShhN stimulation): did not perturb Gli3 processing | IC50 [2]: 1.42 ± 0.96 µM | IC50 ([2]; read-out: IC50, firefly luciferase): 1.42 ± 0.96 µM | Inhibition of Hh pathway activity ([2]; Sufu-KO-LIGHT cells): inhibits Hh pathway activity | Exogenous Gli1 activity [3]: potently blocked
